Source: PubChem BioAssay AID1996
Converted amounts (≈) assume the structure as drawn.

Conditions: buffer; pH 7.4; 200.0 µM

SMILES	solubility kinetic [µg/mL]
Cc1ccccc1CC(=O)N1CCOCC1	> 32.9
CCCC1(CCC)NC(=O)N(CC(=O)Nc2ccc(Cl)c(S(=O)(=O)N3CCOCC3)c2)C1=O	73.2 (≈ 146 µM)
O=C(CC1CCCCC1)NCc1ccccc1Cl	2.9 (≈ 10.9 µM)
CC(NC(=O)N1CCOCC1)c1ccccc1 (stereo not given)	> 35.1
CN(C)C(=S)Nc1ccc2c(c1)OCCO2	> 35.7
O=C(COC(=O)c1cccs1)Nc1ccc(F)c(F)c1	24.9 (≈ 83.8 µM)
Cc1cc(=O)[nH]c2sc(C(=O)N3c4ccccc4CC3C)c(N)c12 (stereo not given)	> 50.9
COc1cc(C(=O)N2CCN(c3ccccn3)CC2)cc(OC)c1OC	> 53.6
O=C1CCCN1CCCNc1ncnc2sccc12	> 41.5
O=C1c2ccccc2NC(c2cccc(O)c2)N1Cc1ccco1 (stereo not given)	> 48.1
COc1ccccc1NS(=O)(=O)c1cc(NC(=O)c2ccc(Cl)nc2)ccc1N1CCCC1	2.1 (≈ 4.31 µM)
COc1cc(OC)c(C2CC(=O)N3CN(C)CSC3=C2C#N)cc1OC (stereo not given)	43.3 (≈ 115 µM)
CC(NCc1ccccc1O)c1ccccc1 (stereo not given)	> 34.1
O=C(O)CSCC(=O)N(c1ccccc1)c1ccccc1	42.9 (≈ 142 µM)
O=C(CCc1nc(-c2ccc(Cl)cc2)no1)NC1CCCC1	6.4 (≈ 20 µM)
COc1cc(C(=O)NCCCCc2ccccc2)cc(OC)c1OC	4.5 (≈ 13.1 µM)
O=C(Nc1cc([N+](=O)[O-])ccc1F)C1CCN(S(=O)(=O)c2cccs2)CC1	4.4 (≈ 10.6 µM)
Cc1cc2cc(CNC(=O)Cc3ccc([N+](=O)[O-])cc3)ccc2[nH]1	6.9 (≈ 21.3 µM)
Cc1cc(C(=O)N2CCC3(CC2)OCCO3)no1	> 37.8
O=C(Nc1cccnc1)c1cc2cc(Br)ccc2o1	0.9 (≈ 2.84 µM)
Cc1nc([N+](=O)[O-])cn1C(C)C	> 25.4
C=CCNC(=S)/N=c1/ccccn1C	> 31.1
Cc1ccccc1C(N)c1ccncc1.Cl (stereo not given)	> 40.7
O=C(CN1C(=O)NC2(CCCc3ccccc32)C1=O)c1ccc(F)c(F)c1 (stereo not given)	17.3 (≈ 46.7 µM)

SMILES	solubility kinetic [µg/mL]
CN1C(=O)/C(=C/c2cc3c(cc2Br)OCO3)NC1=S	< 0.4
Cc1cccc(Nc2ccc(C(=O)O)cc2[N+](=O)[O-])c1C	> 42.9
Cc1nonc1NC(=O)CSc1nc2ccccc2o1	42.4 (≈ 146 µM)
Cc1ccc(-n2c(C)nc3ccccc3c2=O)c(C)c1	> 39.6
N/C(=N\OC(=O)c1cccc(Br)c1)c1ccc([N+](=O)[O-])cc1	1.4 (≈ 3.84 µM)
COc1cc(CO)ccc1Oc1nc2ccccc2n2cnnc12	> 48.3
Cc1nn(CC(=O)NC2CC2)c(C)c1S(=O)(=O)NC(C)(C)C	> 49.3
Cc1ccc(S(=O)(=O)N2CCCCCC2)cc1C(=O)NCc1ccccn1	55.7 (≈ 144 µM)
CC1CCCCN1C(=S)NCc1ccco1 (stereo not given)	> 35.8
Cc1ccc(CN(C)C(=O)c2c(C)nn(-c3ccccc3)c2C)cc1	> 50
O=C(OCc1cccc([N+](=O)[O-])c1)c1ccc[nH]c1=O	> 41.1
O=C(O)CCSc1nnc(SCC(=O)NC2CCS(=O)(=O)C2)s1 (stereo not given)	> 59.6
Cc1cccc(C(=O)NC(=S)NCc2ccccc2)c1	2.4 (≈ 8.44 µM)
CC(C)c1ccccc1NC(=S)NCC1(N(C)C)CCCCC1	45.9 (≈ 138 µM)
Cc1cc(C(=O)CN2C(=O)NC(CCS(C)(=O)=O)C2=O)c(C)n1C1CC1 (stereo not given)	48.3 (≈ 127 µM)
O=S(=O)(c1ccc2c(c1)CCCN2)N1CCCCC1	> 42.1
COC(=O)/C(=C\C(=O)c1ccccc1)Nc1ccc(OC)cc1	7.6 (≈ 24.4 µM)
CCN(CC)Cc1ccccn1.Cl	29.2
COc1ccc(/C(N)=N/OC(=O)CCc2ccccc2)cc1	9.9 (≈ 33.2 µM)
Cc1cc2oc(C(=O)NCc3ccccc3)cc(=O)c2cc1C	0.9 (≈ 2.93 µM)
CCS(=O)(=O)N1CCC(N2CCC(C)CC2)CC1.O=C(O)C(=O)O	53.3
CC(=NCCc1ccccc1)C1=C(O)C(c2ccccc2)OC1=O (stereo not given)	31.7 (≈ 98.6 µM)
COc1ccccc1Cn1c(C)nc2ccccc21	37 (≈ 147 µM)
COc1cccc2cc(C(=O)N3CCCc4ccccc43)oc12	15.3 (≈ 49.8 µM)

SMILES	solubility kinetic [µg/mL]
N#CCc1ccc(OC(=O)c2cccnc2Cl)cc1	> 40.9
CC(=O)Nc1ccc(NC(=O)c2c(-c3ccccc3)noc2C)cn1	11.1 (≈ 33 µM)
Cc1ccc(NC(=S)N2CCC(NC(=O)c3ccccc3)CC2)cc1	8.8 (≈ 24.9 µM)
COc1ccc(-c2cc(C(=O)NC3CC3)c3ccccc3n2)cc1	1.6 (≈ 5.03 µM)
COc1ccc(C)cc1Nc1nc(N)c2cc(OC)c(OC)cc2n1	40.1 (≈ 118 µM)
O=C(c1ccc(F)cc1)N1CCN(c2ccccn2)CC1	> 42.8
Cc1cc(C)n2c(=O)c3ccc(Cl)cc3nc2c1C#N	1.3 (≈ 4.58 µM)
Cc1ccccc1-c1cn(-c2ccccc2)c(=S)[nH]1	6.2 (≈ 23.3 µM)
Cc1cc(C)cc(OCC(=O)O/N=C(\N)Cc2ccc([N+](=O)[O-])cc2)c1	20.4 (≈ 57.1 µM)
CC(C)c1ccc(NC(=O)N2CCOCC2)cc1	> 37.2
Nc1ccccc1-n1cccc1	14.5 (≈ 91.7 µM)
COc1ccc(S(=O)(=O)N2CC(=O)Nc3ccccc32)cc1F	> 50.5
OC(COc1ccc(Cl)cc1)CN1CCN(c2ccccn2)CC1 (stereo not given)	33.8 (≈ 97.2 µM)
CCc1sc(C(=O)N2CCN(C(=O)c3ccccc3)CC2)cc1C	> 51.4
CC1CC(C)CN(C(=O)COC(=O)c2ccc(N3CCCC3=O)cc2)C1 (stereo not given)	> 53.8
Cc1occc1C(=O)Nc1sccc1C(N)=O	10.7 (≈ 42.8 µM)
N#Cc1ccccc1COC(=O)c1cccnc1N	10.5 (≈ 41.5 µM)
CCON1C(=O)C(C)(C)N(OCC)C(=O)C1(C)C	> 38.7
COc1cc(NC(=O)CCN2CCN(C)CC2)cc(OC)c1	> 46.1
Nc1nc(N)c2c(n1)CCCC2	17.6 (≈ 107 µM)
CC(C)(C)C(=O)NC(CC(=O)O)c1ccccc1 (stereo not given)	> 37.4
Fc1ccccc1CNc1ncnc2sccc12	9.9 (≈ 38.2 µM)
O=C1N=c2ccccc2=C1c1sc(=S)n(-c2ccc(O)cc2)c1O	0.8 (≈ 2.26 µM)
COCC(C)n1c(C)cc(C(=O)COC(=O)c2cc(=O)[nH]c3ccccc23)c1C (stereo not given)	11 (≈ 27.7 µM)

SMILES	solubility kinetic [µg/mL]
O=C(COC(=O)COc1ccccc1)NCCC1=CCCCC1	38.5 (≈ 121 µM)
O=C(COC(=O)/C=C/c1cccc(Cl)c1)NC1CC1	4.8 (≈ 17.2 µM)
COc1ccccc1CNC(=O)C1CCC(=O)N1C(C)C (stereo not given)	> 43.6
CC(=O)NC1c2ccccc2C(=O)N1Cc1ccccc1 (stereo not given)	39.9 (≈ 142 µM)
O=C(NCCc1ccccc1)c1ccccc1Cl	> 39
CC1Cc2ccccc2N1C1=CC(=O)CCC1 (stereo not given)	> 34.1
CSc1nnc(C)c(=O)n1COC(=O)/C=C/c1ccccc1	> 47.6
Cc1ccc(CSCc2ccc(C(=O)NCCC(C)C)o2)cc1	2.2 (≈ 6.64 µM)
O=C(NCC(c1ccco1)N1CCOCC1)c1ccc([N+](=O)[O-])cc1 (stereo not given)	> 51.8
Cl.O=C1CC[C@@]2(O)[C@H]3Cc4ccc(O)c5c4[C@@]2(CCN3CC2CC2)[C@H]1O5	> 56.7
CCN1CCN(C(=O)Cc2ccc(C)cc2)CC1	> 37
O/N=C/c1ccc(-c2ccccc2OC(F)(F)F)o1	1.7 (≈ 6.27 µM)
O=C(CNC(=O)C1CCCCC1)OCC(=O)c1cccc(Cl)c1	46.8 (≈ 139 µM)
O=C(Nc1ccccc1)C1CCN(C(=O)c2ccco2)CC1	> 44.8
Cc1ccc2oc(C(=O)Nc3nonc3C)c(C)c2c1	< 0.2
Cc1ccc(S(=O)(=O)N(C)CC(=O)NNC(=O)CCNS(=O)(=O)c2cccc(C)c2)cc1	> 72.4
COc1ccccc1CNC(=O)CC(C)c1ccccc1 (stereo not given)	39.8 (≈ 140 µM)
Cl.O=C(NCCN1CCOCC1)c1ccc(S(=O)(=O)Nc2ccccc2)cc1	> 63.9
CCCNC(=O)c1ccc2c(c1)ncn2-c1cc(C)cc(C)c1	38.4 (≈ 125 µM)
Cc1cccn2cc(-c3cc4ccccc4oc3=O)nc12	0.6 (≈ 2.17 µM)
CCCN(CC1CC1)C(=S)NC(=O)C1CC1	> 36.1
Cc1noc(C)c1C(=O)OCC(=O)N(C)C1CCS(=O)(=O)C1 (stereo not given)	> 49.6
COc1ccc(NS(=O)(=O)c2cccs2)cn1	> 40.5
CCCCCCn1c(N2CCCC2)nc2c1c(=O)n(C)c(=O)n2C	48.6 (≈ 146 µM)

SMILES	solubility kinetic [µg/mL]
COc1cc2nc(CN3CCN(S(=O)(=O)c4cc(C)ccc4C)CC3)[nH]c(=O)c2cc1OC	9.7 (≈ 20.5 µM)
Nc1cc(=O)[nH]c(SCC(=O)Nc2cc(Cl)ccc2Cl)n1	3.5 (≈ 10.1 µM)
O=C1CC(Sc2cccs2)C(=O)N1c1ccccc1 (stereo not given)	41.7 (≈ 144 µM)
C#CCOc1ccccc1/C=C1/C(=O)ON=C1C	34.9 (≈ 145 µM)
O=C(Cc1ccccc1)Nc1nc(-c2ccc(F)c(F)c2)cs1	0.4 (≈ 1.21 µM)
O=C(Oc1ccccc1)c1cccnc1Oc1ccccc1	20.7 (≈ 71.1 µM)
COCCNc1c2c(nc3ccccc13)CCC2.Cl	> 41.8
O=C(/C=C/c1ccc([N+](=O)[O-])cc1)N1CCN(Cc2ccccc2)CC1	1.7 (≈ 4.84 µM)
C=CCOn1c(=O)c(-c2ccc(OCC)cc2)[n+]([O-])c2ccccc21	6.3 (≈ 18.6 µM)
CC(CCc1ccccc1)NC(=O)c1ccccc1Cl (stereo not given)	41.6 (≈ 145 µM)
CN(C(=O)C1CCC1C(=O)O)c1nc(-c2ccc(Cl)s2)cs1 (stereo not given)	42.6 (≈ 119 µM)
N#Cc1ccccc1COC(=O)CCN=C1NS(=O)(=O)c2ccccc21	52.4 (≈ 142 µM)
COc1ccccc1CN1CCN(Cc2nc(-c3ccccc3)no2)CC1	50.1 (≈ 137 µM)
COc1ccc(CNC(=S)Nc2ccc(F)c(Cl)c2)cc1OC	3.2 (≈ 9.02 µM)
COCCNC(=S)N1CCC(NC(=O)c2ccco2)CC1	> 46.7
COc1c2c(nc3occc13)C(CC=C(C)C)(OC)C(=O)C=C2 (stereo not given)	> 47
Cn1nccc1C(=O)OCC(=O)Nc1ccc(S(N)(=O)=O)cc1	> 50.8
COc1cccc(NC(=O)c2cncs2)c1	32.9 (≈ 140 µM)
O=C1CCc2cc(S(=O)(=O)NC3CCCCC3)ccc2N1	> 46.3
Cc1cccc(CC2S/C(=N/c3cccc(C)n3)NC2=O)c1 (stereo not given)	0.7 (≈ 2.25 µM)
CCCOc1ccc(C(CC(=O)O)NC(=O)Cc2ccccc2)cc1 (stereo not given)	> 51.2
O=C(NCCc1ccccc1)C1CCC(=O)N1C1CCCC1 (stereo not given)	> 45.1
CCOC(=O)c1ccc(NC(=O)NC2CC3CCC(C2)N3)cc1 (stereo not given)	43.5 (≈ 137 µM)
COc1ccc(CN2C(=O)c3ccccc3C2=O)cc1C(=O)O	> 46.7
